Reference: article PMC10714399, “Open Source Antibiotics: Simple Diarylimidazoles Are Potent against Methicillin-Resistant Staphylococcus aureus” (ACS Infectious Diseases, 2023)
Values after ≈ are worked out from the molar mass of the structure shown. Values joined by “and” are separate entries in the source; they are usually repeats but may differ in a detail not shown here. Identical values can stand only once. Like-named read-outs stand apart in the source and are kept apart here.

How the values were obtained:
LogD7.4 (Chrom Log D) = type: physicochemical; conditions: chromatographic system (Chrom Log D); pH 7.4, NEU; read-out: LogD 7.4 (NEU)
[1] = tested on: MRC-5SV2 (human lung fibroblast cell line); assay: Toxicity against MRC-5SV2; type: cell-based; conditions: MRC5 cells
Description: (§1) ADME and toxicity for compounds were measured according to procedures outlined in the manuscript submitted in parallel to this one;2 other procedures were used for those compounds analysed by Monash University (in vitro ADME) or UCL (toxicity), both described in the main

[2] = Rat hepatocyte intrinsic clearance; type: in vitro ADME; conditions: rat hepatocytes, NEU; read-out: Rat Hep CLint (NEU)
[3] = tested on: Staphylococcus aureus NCTC 13373 (mecA-positive; methicillin-resistant); assay: In vitro antibacterial activity, MIC (UCL School of Pharmacy assay), MRSA; type: cell-based; conditions: for MIC: Staphylococcus aureus
Outline: (§2)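 Strains: MRSA NCTC 13373, MSSA ATCC 25923, vanA E. faecalis ATCC 51299. Overnight agar growth suspended in PBS, A600 0.1, diluted 1:100 into isosensitest broth; 2-fold compound dilutions 32–0.03 μg/mL, ≤2% DMSO. Vancomycin QC.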

[4] = tested on: PMM (primary mouse macrophages); assay: Toxicity against PMM; type: cell-based; conditions: PMM
Description: as §1

THP1 = assay: Toxicity against THP1; type: cell-based; conditions: THP1 cells
From the text: Supplement id3c00286_si_002.xlsx, sheet "Series 2 Data" | column: THP1 TC50 (uM)

[5] = Human plasma protein binding (PPB); type: in vitro ADME; conditions: human, plasma, human plasma, NEU; read-out: Human PPB (NEU) (converted)
[6] = tested on: Enterococcus faecalis ATCC 51299 (vanA-positive; vancomycin-resistant); assay: In vitro antibacterial activity, MIC (UCL), VRE; type: cell-based; conditions: read-out: VRE MIC (UCL)
Outline: as §2

[7] = Human liver microsome intrinsic clearance; type: in vitro ADME; conditions: human liver microsomes, NEU; read-out: HLM CLint (NEU)
U2OS = assay: Toxicity against U2OS; type: cell-based; conditions: U2OS cells
From the text: Supplement id3c00286_si_002.xlsx, sheet "Series 2 Data" | column: U2OS TC50 (uM)

Aqueous solubility = type: physicochemical; conditions: thermodynamic from solid; NEU; read-out: Aqueous Solubility (NEU)
[8] = Distribution coefficient estimation using chromatography, gLogD (Monash); type: physicochemical
From the text: Partition coefficient values (LogD) of the test compounds were estimated at pH 7.4 by the correlation of their chromatographic retention properties against the characteristics of a series of standard compounds with known partition coefficient values. The method employed is a gradient HPLC-based derivation of the method developed by Lombardo.[42] […]
c) Distribution Coefficient Estimation using Chromatography (gLogDpH)
Partition coefficient values (LogD) of the test compounds were estimated at pH 7.4 by correlation of their
chromatographic retention properties against the characteristics of a series of standard compounds with known
partition coefficient values. […]
(§3) In Vitro Intrinsic Clearance […]
(§4) Experimental results are tabulated on the following page(s).
(§5) (1 picture or pasted object on this page, not shown here)

[9] = In vitro metabolic stability, human liver microsomes (Monash); type: in vitro ADME
Description: (§6) The metabolic stability assay was performed by incubating each test compound with a suspension of liver microsomes (0.4 mg/mL protein, 1 μM substrate, 37 °C). Microsomes were purchased from XenoTech. The metabolic reaction was initiated by the addition of an NADPH-regenerating system and quenched at various time points over a 60 min incubation by the addition of acetonitrile containing metolazone as an internal standard. Control samples (containing no NADPH) were included (quenched at 2, 30, and 60 min) to monitor for potential degradation in the absence of cofactor. […]
(§7) d) In Vitro Metabolic Stability
(§8) The metabolic stability assay was performed by incubating each test compound with a suspension of liver
(§9) microsomes (0.4 mg/mL, 37°C). The metabolic reaction was initiated by the addition of an NADPH-regenerating
(§10) system and quenched at various time points over a 60 minute incubation by the addition of acetonitrile containing
(§11) metolazone as internal standard. Control samples (containing no NADPH) were included (quenched at 2, 30 and 60
(§12) minutes) to monitor for potential degradation in the absence of cofactor.
(§13) The human liver microsomes used in this experiment were supplied by XenoTech, lot # 1710084.The rat liver
(§14) microsomes used in this experiment were supplied by XenoTech, lot # 1610290. Microsomal incubations were
(§15) performed at a substrate concentration of 1 µM.
(§16) Data analysis and interpretation:
(§17) Substrate depletion as a function of time was analysed as described by Obach (1999) Drug Metab. Dispos., 27:1350-
(§18) 1359. Intrinsic clearance (CLint) values were classified at the limits of low and high clearance bands based on a
(§19) rearrangement of the well stirred model of hepatic elimination. It should be noted that the potential impact of
(§20) compound binding (either in microsomes or in blood) on the relationship between in vitro intrinsic clearance and
(§21) hepatic clearance in vivo has not been accounted for in these studies.
(§22) In Vitro Intrinsic Clearance
(§23) Species (µL/min/mg protein)
(§24) Low Clearance High Clearance
as §4, §5

[10] = In vitro metabolic stability, rat liver microsomes (Monash); type: in vitro ADME
Description: as §6, §7, §8, §9, §10, §11, §12, §13, §14, §15, §16, §17, §18, §19, §20, §21, §22, §23, §24, §4, §5

[11] = Mouse liver microsome (MLM) metabolic stability (UNC); type: in vitro ADME
From the text: Supplement id3c00286_si_002.xlsx, sheet "Series 2 Data" | column: MLM Clint (mL/min/kg) (UNC); MLM t1/2 (min) (UNC); MLM E (UNC)

[12] = Rat liver microsome (RLM) metabolic stability (UNC); type: in vitro ADME; conditions: rat liver microsomes
From the text: Supplement id3c00286_si_002.xlsx, sheet "Series 2 Data" | column: RLM Clint (mL/min/kg) (UNC); RLM t1/2 (min) (UNC); RLM E (UNC)

[13] = Kinetic solubility estimation using nephelometry (Monash); type: physicochemical; conditions: for solubility kinetic at 30 min: kinetic from dmso stock
Description: Compound in DMSO was spiked into either pH 6.5 phosphate buffer or 0.01 M HCl (approximately pH 2.0) with the final DMSO concentration being 1%. […]
b) Kinetic Solubility Estimation using Nephelometry (SolpH)
Compound in DMSO was spiked into either pH 6.5 phosphate buffer or 0.01 M HCl (approx pH 2.0) with the final
DMSO concentration being 1%. After 30 minutes had elapsed, samples were then analysed via Nephelometry to
determine a solubility range. See Bevan and Lloyd (2000) Anal Chem, 72:1781-1787. […]
as §3, §4, §5

[14] = tested on: Klebsiella pneumoniae ATCC 700603; assay: CO-ADD antibacterial assay, K. pneumoniae; type: cell-based
Description: (§25) Hit Confirmation of active compounds by whole cell growth inhibition assays was conducted as an 8-point dose response to determine the Minimum Inhibitory Concentration (MIC), in duplicate (n=2). The inhibition of growth is measured against those microorganisms that […]
(§26) Included in the Hit Confirmation were 5 bacteria: Escherichia coli, Klebsiella pneumoniae, Acinetobacter baumannii, Pseudomonas aeruginosa and Staphylococcus aureus, and 2 fungi Candida albicans and Cryptococcus neoformans. […]
(§27) Assay Parameters Bacteria Fungi HEK293 Haemolysis […]
(§28) Duplicate (n=2) Duplicate (n=2) Duplicate (n=2) Duplicate (n=2)
(§29) QC Control MIC: Control MIC: Control CC50: Control HC10:
(§30) Non-Binding Non-Binding TC, 384-well Polypropylene […]
(§31) All bacteria were cultured in Cation-adjusted Mueller Hinton broth (CAMHB) at 37 °C overnight. […] The resultant mid-log phase cultures were diluted (CFU/mL measured by OD600), then added to each well of the compound containing plates, giving a cell density of 5×10^5 CFU/mL and a total volume of 50 µL. […]
(§32) Inhibition of bacterial growth was determined measuring absorbance at 600 nm (OD600), using a Tecan M1000 Pro monochromator plate reader. The percentage of growth inhibition was calculated for each well, using the negative control (media only) and positive control (bacteria without inhibitors) on the same plate as references. […]

[15] = tested on: Pseudomonas aeruginosa ATCC 27853; assay: CO-ADD antibacterial assay, P. aeruginosa; type: cell-based
Description: as §25, §26, §27, §28, §29, §30, §31, §32

[16] = tested on: Acinetobacter baumannii ATCC 19606; assay: CO-ADD antibacterial assay, A. baumannii; type: cell-based
Description: as §25, §26, §27, §28, §29, §30, §31, §32

[17] = tested on: Escherichia coli ATCC 25922; assay: CO-ADD antibacterial assay, E. coli; type: cell-based
Description: as §25, §26, §27, §28, §29, §30, §31, §32

p38 kinase = tested on: p38 kinase; set-up: method as in earlier work; conditions: cited from earlier work
[18] = NADPH, read-out: CLint, in vitro

## COc1ccn2c(-c3ccc(F)cc3)c(-c3ccccn3)nc2c1 [OSA_000858]
LogD7.4 (Chrom Log D)
  chromatographic logD: 2.9
[1]
  MRC5 TC50: 3.62 µM
[2]
  hepatocyte CLint: 25.1 µL/min/1e6 cells
[3]; UCL, read-out: MRSA MIC (UCL)
  MIC: 16 µg/mL (≈ 50.1 µM)
[4]
  PMM TC50: 8 µM
THP1
  THP1 TC50: 7.63 µM
[5]
  fraction unbound: 0.054
[6]
  MIC: > 32 µg/mL
[7]
  microsomal CLint: > 300 µL/min/mg
U2OS
  U2OS TC50: 1.28 µM
Aqueous solubility
  solubility: 85 µM (≈ 27.1 µg/mL)

## c1ccc(-c2nc3n(c2-c2ccc4c(c2)OCO4)CCC3)nc1 [OSA_000812]
[8]; gradient HPLC retention against standard compounds, pH 7.4
  chromatographic logD: 1.5
[9]; Monash
  HLM Clint (Monash): 28 µL/min/mg
  HLM t1/2 (Monash): 62 min
[10]; Monash
  RLM Clint (Monash): 59 µL/min/mg
  RLM t1/2 (Monash): 29 min
[11]; mouse liver microsomes
  MLM Clint (UNC): 677 mL/min/kg
  MLM E (UNC): 0.864 and 0.883
  MLM t1/2 (UNC): 8.3 min
[11]; mouse, liver microsomes
  CLint scaled: 569 mL/min/kg
[11]; mouse, liver microsomes, read-out: MLM t1/2 (UNC)
  half-life: 9.87 min
[3]; UCL, read-out: MRSA MIC (UCL)
  MIC: 32 µg/mL (≈ 105 µM)
[12]
  CLint scaled: 142 mL/min/kg
  RLM E (UNC): 0.669
[12]; read-out: RLM t1/2 (UNC)
  half-life: 17.7 min
[13]; 0.01 M HCl, simulated gastric fluid, pH 2.0, read-out: Sol (pH 2.0) (Monash)
  solubility kinetic at 30 min: > 100 µg/mL
[13]; pH 6.5 phosphate buffer, pH 6.5, aqueous buffer, read-out: Sol (pH 6.5) (Monash)
  solubility kinetic at 30 min: 50 to 100 µg/mL (≈ 164 to 328 µM)

## COc1ccn2c(-c3ccccc3)c(-c3ccccn3)nc2c1 [OSA_000860]
LogD7.4 (Chrom Log D)
  chromatographic logD: 3.1
[1]
  MRC5 TC50: 3.92 µM
[2]
  hepatocyte CLint: 23.9 µL/min/1e6 cells
[3]; UCL, read-out: MRSA MIC (UCL)
  MIC: 8 µg/mL (≈ 26.5 µM)
[4]
  PMM TC50: 8 µM
THP1
  THP1 TC50: 5.01 µM
[5]
  fraction unbound: 0.028
[6]
  MIC: 32 µg/mL (≈ 106 µM)
[7]
  microsomal CLint: 224 µL/min/mg
U2OS
  U2OS TC50: 0.73 µM
Aqueous solubility
  solubility: 79 µM (≈ 23.8 µg/mL)

## Colistin - Sulfate
[14]
  MIC Klebsiella: 0.25 µg/mL
[15]
  MIC Pseudomonas aeruginosa: 0.25 µg/mL
[16]
  MIC Acinetobacter baumannii: 0.25 µg/mL
[17]
  MIC Escherichia coli: 0.125 µg/mL

## c1ccc(-c2nc3n(c2-c2ccc4c(c2)OCO4)CCC3)nc1 [compound 812]
[8]
  gLogD at pH 7.4: 1.5
[9]; [18]
  microsomal CLint at 1 µM: 28 µL/min/mg
[9]; NADPH, read-out: T1/2
  half-life at 1 µM: 62 min
[10]; [18]
  microsomal CLint at 1 µM: 59 µL/min/mg
[10]; NADPH, read-out: T1/2
  half-life at 1 µM: 29 min
[3]
  activity against MRSA, in words: MRSA-inactive
[3]; 16 h, read-out: MRSA MIC
  MIC: > 32 µg/mL
[3]; read-out: MRSA MIC
  MIC: 32 µg/mL (≈ 105 µM)
p38 kinase
  inhibition of p38 kinase: no inhibition
[13]; pH 6.5 phosphate buffer
  Sol 6.5: 50 to 100 µg/mL
